Calls of active or inactive are those of the source. No cut-off for these calls is given here.
Experiments:
Homo sapiens [1] = species: Homo sapiens; assay: Binding affinity to DNA sequence ICB1 assessed as protection of ICB1 from DNAase I cleavage at 100 uM
Homo sapiens [2] = species: Homo sapiens; assay: Binding affinity to DNA sequence ICB4 assessed as protection of ICB4 from DNAase I cleavage at 100 uM
NIH3T3 [3] = assay: Inhibition of NF-Y binding to DNA sequence ICB2 in NIH3T3 cell extracts at 50 uM by EMSA; format: cell-free; settings: Homo sapiens
Homo sapiens [4] = species: Homo sapiens; assay: Binding affinity to DNA sequence ICB2 by SPR
NIH3T3 [5] = assay: Increased topoisomerase 2 alpha protein expression in NIH3T3 cells at 10 uM after 4 hrs; format: functional, cell-based; settings: Mus musculus
NIH3T3 [6] = assay: Inhibition of NF-Y binding to DNA sequence ICB1 in NIH3T3 cell extracts at 50uM by EMSA; format: cell-free; settings: Homo sapiens
NIH3T3 [7] = assay: Induction of topoisomerase 2 alpha protein expression in NIH3T3 cells after 24 hrs; format: functional, cell-based; settings: Mus musculus
NIH3T3 [8] = assay: Inhibition of NF-Y binding to DNA sequence ICB2 in NIH3T3 cell extracts at 1 to 5 uM by EMSA; format: cell-free; settings: Homo sapiens

Activity (Homo sapiens [1]) | Activity (Homo sapiens [2]) | Activity (Homo sapiens [4]) [M⁻¹] | SMILES | Activity (NIH3T3 [3]) | Activity (NIH3T3 [5]) | Activity (NIH3T3 [6]) | Activity (NIH3T3 [7]) | Activity (NIH3T3 [8])
inactive | inactive | 200000 | CN(C)CCNC(=O)c1cc(NC(=O)c2nc(NC(=O)c3cc(NC=O)cn3C)cn2C)cn1C | Active | Active | inactive |  | 
 |  |  | CN(C)CCNC(=O)c1cc(NC(=O)c2cc(NC(=O)c3cc(NC(=O)CCCNC(=O)c4nc(NC(=O)c5nc(NC(=O)c6cccn6C)cn5C)cn4C)cn3C)cn2C)cn1C |  |  |  | Active | Active

— ChEMBL document CHEMBL1146168, “Binding of f-PIP, a pyrrole- and imidazole-containing triamide, to the inverted CCAAT box-2 of the topoisomerase IIalpha promoter and modulation of gene expression in cells” (Bioorg Med Chem Lett, 2006)
